Data as given in US12077503B2, “Substituted cyclic amides and their use as herbicides” (FMC CORPORATION, priority 2015, dated 2024).
Read-outs that look alike come from different tables or passages of the source.

Experiments:
[1] = tested on: giant foxtail (Setaria faberii); assay: Test A preemergence; assay type: in vivo; conditions: Setaria faberi, pre-emergence, 240 h; for pest or weed control at 125 g/ha: 125 g ai/ha; for pest or weed control at 500 g/ha: 500 g ai/ha
In short: (§1)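 Visual injury, scored on a 0–100 scale relative to untreated controls, was recorded about 10 d after application. Treatments were a preemergence soil spray over planted seeds or a postemergence spray on plants at the one- to two-leaf stage, 2 to 10 cm tall, all in loam soil–sand blend in the greenhouse.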

[2] = tested on: pigweed (Amaranthus retroflexus); assay: Test A preemergence; assay type: in vivo; conditions: Amaranthus retroflexus, pre-emergence, 240 h; for pest or weed control at 125 g/ha: 125 g ai/ha; for pest or weed control at 500 g/ha: 500 g ai/ha
[3] = tested on: ryegrass, Italian (Italian ryegrass, Lolium multiflorum); assay: Test A preemergence; assay type: in vivo; conditions: Lolium multiflorum, pre-emergence, 240 h; for pest or weed control at 500 g/ha: 500 g ai/ha; for pest or weed control at 125 g/ha: 125 g ai/ha
In short: as §1

[4] = tested on: ragweed (common ragweed, Ambrosia elatior); assay: Test A preemergence; assay type: in vivo; conditions: Ambrosia artemisiifolia, pre-emergence, 240 h; for pest or weed control at 500 g/ha: 500 g ai/ha; for pest or weed control at 125 g/ha: 125 g ai/ha
In short: as §1

Kochia (Kochia scoparia) = assay: Test A preemergence; assay type: in vivo; conditions: Bassia scoparia, pre-emergence, 240 h; for pest or weed control at 125 g/ha: 125 g ai/ha; for pest or weed control at 500 g/ha: 500 g ai/ha
In short: as §1

[5] = preemergence, 0 to 100 scale where 0 is no effect and 100 is complete control, read-out: Foxtail, Giant plant response rating
[6] = preemergence, visual injury rating about 10 d after treatment, 0 to 100 scale (0 no effect, 100 complete control), read-out: Foxtail, Giant plant response rating
[7] = preemergence, 0 to 100 scale where 0 is no effect and 100 is complete control, read-out: Pigweed plant response rating
[8] = preemergence, visual injury rating about 10 d after treatment, 0 to 100 scale (0 no effect, 100 complete control), read-out: Pigweed plant response rating
[9] = preemergence, visual injury rating about 10 d after treatment, 0 to 100 scale (0 no effect, 100 complete control), read-out: Ryegrass, Italian plant response rating
[10] = preemergence, visual injury rating about 10 d after treatment, 0 to 100 scale (0 no effect, 100 complete control), read-out: Ragweed plant response rating
[11] = preemergence, 0 to 100 scale where 0 is no effect and 100 is complete control, read-out: Kochia plant response rating
[12] = preemergence, visual injury rating about 10 d after treatment, 0 to 100 scale (0 no effect, 100 complete control), read-out: Kochia plant response rating
[13] = Preemergence, visual injury rating after approximately 10 d, read-out: Foxtail, Giant plant response rating (0 to 100 scale, 0 is no effect, 100 is complete control)
[14] = Preemergence, visual injury rating after approximately 10 d, read-out: Pigweed plant response rating (0 to 100 scale, 0 is no effect, 100 is complete control)
[15] = Preemergence, visual injury rating after approximately 10 d, read-out: Ryegrass, Italian plant response rating (0 to 100 scale, 0 is no effect, 100 is complete control)
[16] = Preemergence, visual injury rating after approximately 10 d, read-out: Ragweed plant response rating (0 to 100 scale, 0 is no effect, 100 is complete control)
[17] = Preemergence, visual injury rating after approximately 10 d, read-out: Kochia plant response rating (0 to 100 scale, 0 is no effect, 100 is complete control)
[18] = preemergence, 0 to 100 scale where 0 is no effect and 100 is complete control, approx. 10 d, read-out: Pigweed plant response rating
[19] = preemergence, 0 to 100 scale where 0 is no effect and 100 is complete control, approx. 10 d, read-out: Ryegrass, Italian plant response rating
[20] = preemergence, 0 to 100 scale where 0 is no effect and 100 is complete control, approx. 10 d, read-out: Ragweed plant response rating
[21] = preemergence, 0 to 100 scale where 0 is no effect and 100 is complete control, approx. 10 d, read-out: Kochia plant response rating
[22] = preemergence, 0 to 100 scale where 0 is no effect and 100 is complete control, approx. 10 d, read-out: Foxtail, Giant plant response rating
[23] = preemergence, 0 to 100 scale where 0 is no effect and 100 is complete control, read-out: Ryegrass, Italian plant response rating
[24] = preemergence, 0 to 100 scale where 0 is no effect and 100 is complete control, read-out: Ragweed plant response rating

| melting point [°C] | SMILES | pest or weed control at 500 g/ha [1, 6] [%] | pest or weed control at 500 g/ha [2, 8] [%] | pest or weed control at 500 g/ha [3, 9] [%] | pest or weed control at 500 g/ha [4, 10] [%] | pest or weed control at 500 g/ha (Kochia (Kochia scoparia); [12]) [%] | pest or weed control at 125 g/ha [1, 13] [%] | pest or weed control at 125 g/ha [2, 18] [%] | pest or weed control at 125 g/ha [3, 19] [%] | pest or weed control at 125 g/ha [4, 20] [%] | pest or weed control at 125 g/ha (Kochia (Kochia scoparia); [21]) [%] | also measured |
| --- | --- | --- | --- | --- | --- | --- | --- | --- | --- | --- | --- | --- |
| 192 to 196 | O=C1NCC(c2ccccc2OC(F)(F)C(F)F)C1C(=O)Nc1cccc(F)c1F (centres unmarked) [Compound 1054] | 0 | 0 | 0 | 0 | 0 | 0 |  |  |  |  | pest or weed control at 125 g/ha [2, 14]: 0%; pest or weed control at 125 g/ha [3, 15]: 0%; pest or weed control at 125 g/ha [4, 16]: 0%; pest or weed control at 125 g/ha (Kochia (Kochia scoparia); [17]): 0% |
| 161 to 164 | O=C1NC[C@H](c2cccc(I)c2)[C@H]1C(=O)Nc1ccccc1F [Compound 1160] |  |  |  |  |  |  | 0 | 0 | 0 | 0 | pest or weed control at 125 g/ha [1, 22]: 90%; pest or weed control at 500 g/ha [1, 5]: 90%; pest or weed control at 500 g/ha [2, 7]: 20%; pest or weed control at 500 g/ha [3, 23]: 0%; pest or weed control at 500 g/ha [4, 24]: 0%; pest or weed control at 500 g/ha (Kochia (Kochia scoparia); [11]): 50% |
| 123 to 127.7 | O=C1NC[C@H](c2nccs2)[C@H]1C(=O)Nc1ccccc1F [Compound 1181] |  |  |  |  |  |  | 0 | 0 | 0 | 0 | pest or weed control at 125 g/ha [1, 22]: 0%; pest or weed control at 500 g/ha [1, 5]: 0%; pest or weed control at 500 g/ha [2, 7]: 0%; pest or weed control at 500 g/ha [3, 23]: 0%; pest or weed control at 500 g/ha [4, 24]: 0%; pest or weed control at 500 g/ha (Kochia (Kochia scoparia); [11]): 0% |

More lines, now with the values behind:

| SMILES | melting point [°C] | pest or weed control at 500 g/ha [1, 6] [%] | pest or weed control at 500 g/ha [2, 8] [%] | pest or weed control at 500 g/ha [3, 9] [%] | pest or weed control at 500 g/ha [4, 10] [%] | pest or weed control at 500 g/ha (Kochia (Kochia scoparia); [12]) [%] | pest or weed control at 125 g/ha [1, 13] [%] | pest or weed control at 125 g/ha [2, 18] [%] | pest or weed control at 125 g/ha [3, 19] [%] | pest or weed control at 125 g/ha [4, 20] [%] | pest or weed control at 125 g/ha (Kochia (Kochia scoparia); [21]) [%] | also measured |
| --- | --- | --- | --- | --- | --- | --- | --- | --- | --- | --- | --- | --- |
| CN1C[C@H](c2ccc(C(F)(F)F)cc2)[C@@H](C(=O)Nc2cccc(F)c2Br)C1=O [Compound 937] | 160 to 163 | 90 | 80 | 50 | 80 | 80 |  |  |  |  |  | pest or weed control at 125 g/ha [1, 5]: 90%; pest or weed control at 125 g/ha [2, 7]: 50%; pest or weed control at 125 g/ha (Kochia (Kochia scoparia); [11]): 80% |
| CN1CC(c2ccccc2OC(F)(F)C(F)F)C(C(=O)Nc2ccccc2F)C1=O (centres unmarked) [Compound 1053] | 118 to 121 | 0 | 0 | 0 | 0 | 0 | 0 |  |  |  |  | pest or weed control at 125 g/ha [2, 14]: 0%; pest or weed control at 125 g/ha [3, 15]: 0%; pest or weed control at 125 g/ha [4, 16]: 0%; pest or weed control at 125 g/ha (Kochia (Kochia scoparia); [17]): 0% |
| CSc1ccccc1NC(=O)C1C(=O)NCC1C=C(C)C (centres unmarked) [Compound 1055] | 100 to 104 | 0 | 0 | 0 | 0 | 0 | 0 | 0 | 0 | 0 | 0 |  |
| CN1CC(c2ccccc2OC(F)(F)C(F)F)C(C(=O)Nc2cccc(F)c2F)C1=O (centres unmarked) [Compound 1056] | 130 to 134 | 90 | 0 | 0 | 0 | 0 | 60 | 0 | 0 | 0 | 0 |  |
| CC(C)=CC1CNC(=O)C1C(=O)Nc1ccccc1S(C)(=O)=O (centres unmarked) [Compound 1057] | 159 to 163 | 0 | 0 | 0 | 0 | 0 | 0 | 0 | 0 | 0 | 0 |  |
